Reference: ChEMBL document CHEMBL4837239, “Identification of Thieno[3,2-d]pyrimidine Derivatives as Dual Inhibitors of Focal Adhesion Kinase and FMS-like Tyrosine Kinase 3” (J Med Chem, 2021)
The source made the active and inactive calls. No cut-off for these calls is given here.

Tests used:
[1] = Inhibition of FYK Y379 mutant phosphorylation in human MDA-MB-231 cells by in-cell western blot assay; assay type: cell-based
CYP1A2 = target: T1, CYP1A2 (Homo sapiens, UniProt P05177); assay: Inhibition of CYP1A2 (unknown origin) at 10 uM relative to control; assay type: ADME
T1 sequence (P05177 whole entry): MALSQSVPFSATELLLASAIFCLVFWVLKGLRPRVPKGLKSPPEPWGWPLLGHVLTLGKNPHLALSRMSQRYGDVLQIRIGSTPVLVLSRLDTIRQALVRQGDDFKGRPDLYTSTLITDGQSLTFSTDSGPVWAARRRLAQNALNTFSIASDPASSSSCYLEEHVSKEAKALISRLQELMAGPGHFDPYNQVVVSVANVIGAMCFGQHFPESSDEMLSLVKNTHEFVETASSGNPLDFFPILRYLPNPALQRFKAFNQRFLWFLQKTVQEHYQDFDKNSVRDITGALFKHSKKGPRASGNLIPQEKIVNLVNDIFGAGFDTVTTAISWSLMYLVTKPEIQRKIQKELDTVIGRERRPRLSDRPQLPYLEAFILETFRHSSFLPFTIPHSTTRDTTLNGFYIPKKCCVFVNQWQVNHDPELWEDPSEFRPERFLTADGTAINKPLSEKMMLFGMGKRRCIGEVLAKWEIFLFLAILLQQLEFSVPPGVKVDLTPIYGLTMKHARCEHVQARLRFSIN

CYP2D6 = CYP2D6 (Homo sapiens, UniProt P10635); assay: Inhibition of CYP2D6 (unknown origin) at 10 uM relative to control; assay type: ADME
Sequence of CYP2D6 (P10635 whole entry): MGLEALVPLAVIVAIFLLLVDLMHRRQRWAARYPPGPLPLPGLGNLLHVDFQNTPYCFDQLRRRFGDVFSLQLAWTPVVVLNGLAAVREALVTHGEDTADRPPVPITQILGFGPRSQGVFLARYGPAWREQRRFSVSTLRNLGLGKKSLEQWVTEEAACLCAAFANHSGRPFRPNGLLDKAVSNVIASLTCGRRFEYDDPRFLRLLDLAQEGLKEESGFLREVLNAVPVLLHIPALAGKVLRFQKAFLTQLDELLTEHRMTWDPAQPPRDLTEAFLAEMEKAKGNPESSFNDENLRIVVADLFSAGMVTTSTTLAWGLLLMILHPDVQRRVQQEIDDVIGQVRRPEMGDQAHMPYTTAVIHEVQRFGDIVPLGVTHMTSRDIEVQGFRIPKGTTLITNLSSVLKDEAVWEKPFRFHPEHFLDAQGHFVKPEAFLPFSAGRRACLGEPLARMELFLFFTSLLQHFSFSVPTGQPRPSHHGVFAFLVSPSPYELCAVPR

[2] = Oral bioavailability in mouse at 10 mg/kg; assay type: ADME, organism-based; conditions: in vivo
[3] = target: Tyrosine-protein kinase JAK3 (Homo sapiens, UniProt P52333); assay: Inhibition of JAK3 (unknown origin)
Sequence of Tyrosine-protein kinase JAK3 (P52333 whole entry): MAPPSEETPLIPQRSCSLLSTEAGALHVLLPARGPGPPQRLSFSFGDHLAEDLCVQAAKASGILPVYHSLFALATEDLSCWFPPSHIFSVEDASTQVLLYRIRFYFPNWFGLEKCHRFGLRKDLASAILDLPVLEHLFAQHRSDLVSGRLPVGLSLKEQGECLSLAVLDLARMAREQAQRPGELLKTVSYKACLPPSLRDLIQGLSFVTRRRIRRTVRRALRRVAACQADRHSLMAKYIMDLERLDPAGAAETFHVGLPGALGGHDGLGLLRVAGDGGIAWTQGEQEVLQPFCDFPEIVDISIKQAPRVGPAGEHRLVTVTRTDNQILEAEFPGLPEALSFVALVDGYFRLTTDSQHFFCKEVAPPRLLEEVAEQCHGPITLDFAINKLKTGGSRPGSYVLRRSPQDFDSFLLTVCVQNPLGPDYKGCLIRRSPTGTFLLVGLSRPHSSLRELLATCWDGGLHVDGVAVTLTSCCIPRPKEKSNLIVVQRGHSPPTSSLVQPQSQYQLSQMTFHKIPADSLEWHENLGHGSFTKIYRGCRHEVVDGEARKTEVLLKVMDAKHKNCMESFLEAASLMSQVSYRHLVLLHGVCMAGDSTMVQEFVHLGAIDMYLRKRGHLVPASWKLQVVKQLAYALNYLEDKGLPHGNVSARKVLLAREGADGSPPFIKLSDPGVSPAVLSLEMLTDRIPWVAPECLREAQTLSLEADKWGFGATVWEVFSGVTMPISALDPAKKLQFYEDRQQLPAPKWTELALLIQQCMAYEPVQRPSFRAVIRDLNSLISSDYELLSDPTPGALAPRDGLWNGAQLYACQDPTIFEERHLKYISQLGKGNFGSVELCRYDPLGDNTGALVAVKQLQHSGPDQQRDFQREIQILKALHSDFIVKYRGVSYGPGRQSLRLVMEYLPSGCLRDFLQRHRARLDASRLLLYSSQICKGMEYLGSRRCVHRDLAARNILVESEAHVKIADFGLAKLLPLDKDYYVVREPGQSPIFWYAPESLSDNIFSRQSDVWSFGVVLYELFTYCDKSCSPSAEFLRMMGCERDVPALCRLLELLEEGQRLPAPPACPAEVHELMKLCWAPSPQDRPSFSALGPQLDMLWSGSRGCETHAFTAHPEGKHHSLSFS

[4] = target: T2, Tyrosine-protein kinase Fes/Fps (Homo sapiens, UniProt P07332); assay: Inhibition of Fes (unknown origin)
T2 sequence (P07332 whole entry, the tested form may be a part): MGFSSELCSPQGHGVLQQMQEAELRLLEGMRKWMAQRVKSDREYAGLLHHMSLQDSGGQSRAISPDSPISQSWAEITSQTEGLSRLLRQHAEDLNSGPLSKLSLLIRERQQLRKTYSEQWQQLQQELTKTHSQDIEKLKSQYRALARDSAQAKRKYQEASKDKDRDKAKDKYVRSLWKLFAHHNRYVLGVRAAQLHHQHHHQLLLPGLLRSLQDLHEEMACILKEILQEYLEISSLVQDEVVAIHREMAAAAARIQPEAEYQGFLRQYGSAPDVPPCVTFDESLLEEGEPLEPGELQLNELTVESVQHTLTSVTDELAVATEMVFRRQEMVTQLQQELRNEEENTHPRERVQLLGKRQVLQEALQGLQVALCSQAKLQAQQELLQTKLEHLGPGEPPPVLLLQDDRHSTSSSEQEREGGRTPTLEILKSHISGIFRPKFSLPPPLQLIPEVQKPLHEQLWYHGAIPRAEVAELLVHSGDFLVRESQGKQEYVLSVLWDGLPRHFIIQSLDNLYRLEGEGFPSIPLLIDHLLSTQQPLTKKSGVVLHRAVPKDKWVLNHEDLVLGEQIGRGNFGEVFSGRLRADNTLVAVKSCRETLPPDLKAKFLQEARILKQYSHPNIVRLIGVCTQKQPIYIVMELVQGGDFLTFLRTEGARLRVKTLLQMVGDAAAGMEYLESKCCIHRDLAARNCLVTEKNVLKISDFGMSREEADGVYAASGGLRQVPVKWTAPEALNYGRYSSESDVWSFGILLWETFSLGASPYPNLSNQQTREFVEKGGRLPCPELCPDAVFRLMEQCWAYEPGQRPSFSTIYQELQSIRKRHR

[5] = target: Epithelial discoidin domain-containing receptor 1 (Homo sapiens, UniProt Q08345); assay: Inhibition of DDR1 (unknown origin) at 0.1 uM
Sequence of Epithelial discoidin domain-containing receptor 1 (Q08345 whole entry, the tested form may be a part): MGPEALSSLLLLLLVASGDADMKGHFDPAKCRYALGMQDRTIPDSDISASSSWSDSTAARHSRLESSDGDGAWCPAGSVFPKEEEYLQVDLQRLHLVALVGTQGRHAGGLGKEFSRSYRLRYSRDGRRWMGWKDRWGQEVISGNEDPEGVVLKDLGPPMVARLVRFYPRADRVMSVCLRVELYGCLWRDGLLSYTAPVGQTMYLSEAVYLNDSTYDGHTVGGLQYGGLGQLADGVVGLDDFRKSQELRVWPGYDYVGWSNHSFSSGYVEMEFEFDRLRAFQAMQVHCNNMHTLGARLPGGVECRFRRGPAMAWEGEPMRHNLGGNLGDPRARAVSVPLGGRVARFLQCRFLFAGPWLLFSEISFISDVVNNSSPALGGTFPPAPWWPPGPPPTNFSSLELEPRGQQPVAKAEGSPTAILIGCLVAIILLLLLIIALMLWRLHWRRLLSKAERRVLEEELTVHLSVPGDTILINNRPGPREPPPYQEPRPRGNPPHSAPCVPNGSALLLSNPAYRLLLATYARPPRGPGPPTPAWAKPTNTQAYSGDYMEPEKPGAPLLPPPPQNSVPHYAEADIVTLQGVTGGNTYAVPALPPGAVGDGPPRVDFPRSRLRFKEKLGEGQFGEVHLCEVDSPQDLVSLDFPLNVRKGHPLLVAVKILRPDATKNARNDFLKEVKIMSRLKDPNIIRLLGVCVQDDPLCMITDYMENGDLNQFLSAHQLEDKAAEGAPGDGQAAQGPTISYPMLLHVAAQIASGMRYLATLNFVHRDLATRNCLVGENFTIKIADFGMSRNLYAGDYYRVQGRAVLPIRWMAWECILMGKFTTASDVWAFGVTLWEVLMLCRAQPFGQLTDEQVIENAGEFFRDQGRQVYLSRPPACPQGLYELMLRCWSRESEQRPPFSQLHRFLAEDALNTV

[6] = target: T2, Tyrosine-protein kinase Fes/Fps; assay: Inhibition of Fes (unknown origin) at 0.1 uM
[7] = target: Proto-oncogene tyrosine-protein kinase Src (Homo sapiens, UniProt P12931); assay: Inhibition of Src (unknown origin) at 0.1 uM
Sequence of Proto-oncogene tyrosine-protein kinase Src (P12931 2-536 limits assumed): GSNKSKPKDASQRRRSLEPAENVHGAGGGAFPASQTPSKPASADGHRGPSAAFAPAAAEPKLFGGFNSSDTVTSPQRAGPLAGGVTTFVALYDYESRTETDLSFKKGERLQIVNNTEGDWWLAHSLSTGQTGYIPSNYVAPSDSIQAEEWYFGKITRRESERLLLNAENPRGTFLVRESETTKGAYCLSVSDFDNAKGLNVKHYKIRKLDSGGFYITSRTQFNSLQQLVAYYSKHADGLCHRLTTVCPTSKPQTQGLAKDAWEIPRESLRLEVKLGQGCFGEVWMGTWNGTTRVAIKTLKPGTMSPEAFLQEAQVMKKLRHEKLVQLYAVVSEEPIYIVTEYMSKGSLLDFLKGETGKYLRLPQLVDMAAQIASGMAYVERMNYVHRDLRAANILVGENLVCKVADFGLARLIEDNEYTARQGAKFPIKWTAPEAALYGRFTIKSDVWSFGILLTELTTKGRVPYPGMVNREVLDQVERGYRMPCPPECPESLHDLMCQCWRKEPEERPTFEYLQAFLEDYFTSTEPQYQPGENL

BaF3 [8] = assay: Antiproliferative activity against mouse Ba/F3 cells harbouring FLT3 ITD D835Y mutant assessed as growth inhibition measured after 72 hrs by CellTiter-Glo assay; assay type: functional; conditions: Mus musculus, BaF3
BaF3 [9] = assay: Antiproliferative activity against mouse Ba/F3 cells harbouring FLT3 ITD F691L mutant assessed as growth inhibition measured after 72 hrs by CellTiter-Glo assay; assay type: functional; conditions: Mus musculus, BaF3
BaF3 [10] = assay: Antiproliferative activity against mouse Ba/F3 cells harbouring FLT3 ITD F691I mutant assessed as growth inhibition measured after 72 hrs by CellTiter-Glo assay; assay type: functional; conditions: Mus musculus, BaF3
HCT-116 [11] = assay: Induction of apoptosis in human HCT-116 cells assessed as cleaved caspase-3 at 0.1 to 10 uM incubated for 24 hrs by Western blot analysis; assay type: functional, cell-based; conditions: dose 0.1-10 µM
MDA-MB-231 [12] = assay: Induction of apoptosis in human MDA-MB-231 cells assessed as cleaved caspase-3 at 0.1 to 10 uM incubated for 24 hrs by Western blot analysis; assay type: functional, cell-based; conditions: dose 0.1-10 µM
MDA-MB-231 [13] = assay: Growth inhibition of anchorage-Independent human MDA-MB-231 cells assessed as decrease in number of colonies at 10 uM incubated for 72 hrs by MTT assay relative to control; assay type: functional
HCT-116 [14] = assay: Growth inhibition of anchorage-Independent human HCT-116 cells assessed as decrease in number of colonies incubated for 72 hrs by MTT assay; assay type: functional, cell-based; conditions: dose 1-10 µM
MDA-MB-231 [15] = assay: In vivo antitumor activity against human MDA-MB-231 cells xenografted in Balb/c mouse assessed as reduction in tumor mass at 40 to 70 mg/kg, po once daily measured for 16 days; assay type: functional, organism-based; conditions: dose 40-70 mg/kg, time 16.0 day
[16] = Toxicity in Balb/c mouse xenografted with human MDA-MB-231 cells assessed as change in body weight at 40 to 70 mg/kg, po once daily measured for 16 days; assay type: organism-based; conditions: in vivo, 384 h, dose 40-70 mg/kg, time 16 day
MDA-MB-231 [17] = assay: Disruption of focal adhesion of human MDA-MB-231 cells assessed as decrease in F-actin measured after 3 hrs by Alexa Fluor 488-conjugated Ab based fluorescence analysis; assay type: functional; design: scale not given: the % may be the effect or the level left; conditions: dose 1-10 µM, at 1 to 10 µM
[18] = Toxicity in NSG orthotopic mouse xenografted with human MDA-MB-231 cells assessed as adverse effect at 40 to 70 mg/kg, po once daily measured for 2 weeks; assay type: organism-based; conditions: in vivo, 336 h, dose 40-70 mg/kg
[19] = Toxicity in NSG orthotopic mouse xenografted with human MDA-MB-231 cells assessed as change in body weight at 40 to 70 mg/kg, po once daily measured for 2 weeks; assay type: organism-based; conditions: in vivo, 336 h, dose 40-70 mg/kg

Question: With CCN1CCN(c2ccc(Nc3ncc4scc(-c5cccc(NS(C)(=O)=O)c5)c4n3)cc2)CC1 as the compound, how does the IC50 [1] read?
Answer: 260 nM

Question: What about the inhibition at 10 µM (CYP1A2) of the same compound?
Answer: 89.2%

Question: What about the inhibition at 10 µM (CYP2D6) of the same compound?
Answer: 100%

Question: And the bioavailability [2]?
Answer: 15.8%

Question: What about the IC50 [3] of the same compound?
Answer: 3.2 nM

Question: What about the IC50 [4] of the same compound?
Answer: 4.9 nM

Question: What about the inhibition [5] of the same compound?
Answer: 97%

Question: And the inhibition [6]?
Answer: 95%

Question: What about the inhibition [7] of the same compound?
Answer: 93.1%

Question: And the GI50 (BaF3 [8])?
Answer: 5.7 nM

Question: And the GI50 (BaF3 [9])?
Answer: 60.5 nM

Question: And the GI50 (BaF3 [10])?
Answer: 114 nM

Question: What about the Activity (HCT-116 [11]) of the same compound?
Answer: Active

Question: What about the Activity (MDA-MB-231 [12]) of the same compound?
Answer: Active

Question: What about the inhibition at 10 µM (MDA-MB-231 [13]) of the same compound?
Answer: 75%

Question: What about the “growth inhibition (GI)” value (HCT-116 [14]) of the same compound?
Answer: Active

Question: What about the Activity (MDA-MB-231 [15]) of the same compound?
Answer: Active

Question: And the Activity [16]?
Answer: Non-Toxic

Question: And the Activity (MDA-MB-231 [17])?
Answer: 50%

Question: And the Activity [18]?
Answer: Non-Toxic

Question: What about the Activity [19] of the same compound?
Answer: Non-Toxic
